Reference: patent publication US8252793B2, “Bradykinin receptor agonists and uses thereof to treat ocular hypertension and glaucoma” (Alcon Research, Ltd., priority 2010, dated 2012)

Columns and labels:
[1] = tested on: primary human ciliary muscle cells (h-CM); test: Total prostaglandin (PG) release from primary h-CM cells (EIA); format: cell-based; details: 1 hour at 37° C., class symbols (in μM)
Experimental: BK agonist compounds of Formula 1 were evaluated for the ability to induce prostaglandin (PG) release from primary human ciliary muscle cells (h-CM). Briefly, h-CM cells were grown to confluence in FNC-coated 24-well culture plates and serum-starved (0.8% FBS) for 24 hours prior to the experiment. Cells were stimulated with a 9-pt concentration-response (0.1 nM-10 μM) of bradykinin or BK agonist for 1 hour at 37° C. with subsequent sample recovery and processing for total PG measurement. Total PG measurement was determined using a total Prostaglandin Screening EIA kit (cat#514012) purchased from Cayman Chemical (Ann Arbor, Mich.). The assay was conducted according to the package insert from the manufacturer.

[2] = molecular target: T1, recombinant human bradykinin B2 receptor (Homo sapiens, UniProt P30411); test: [3H]-BK competition radioligand binding to human cloned B2 receptor (CHO cell membranes); details: 0.2 nM [3H]-bradykinin, CHO membranes, 60 min 23° C.; mean ± SEM or single value; Ki from IC50 by Cheng-Prusoff; read-out: [3H]-BK Binding to Human Cloned B2 Receptor (Ki)
T1 construct: expressed in transfected cells; host or cells: Chinese hamster ovary (CHO) cells, membrane homogenates
T1 sequence (P30411 1-391): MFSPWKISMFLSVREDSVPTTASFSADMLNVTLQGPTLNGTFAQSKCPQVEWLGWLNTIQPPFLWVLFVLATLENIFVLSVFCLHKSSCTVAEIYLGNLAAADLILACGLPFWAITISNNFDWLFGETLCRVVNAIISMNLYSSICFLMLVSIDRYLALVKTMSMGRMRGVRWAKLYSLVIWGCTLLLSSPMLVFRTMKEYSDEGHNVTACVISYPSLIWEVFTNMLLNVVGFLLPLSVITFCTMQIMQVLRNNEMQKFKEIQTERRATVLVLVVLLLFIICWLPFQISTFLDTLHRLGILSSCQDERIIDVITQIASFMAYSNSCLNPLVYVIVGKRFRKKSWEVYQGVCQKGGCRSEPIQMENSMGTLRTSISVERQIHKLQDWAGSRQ
Experimental: Chinese hamster ovary (CHO) cell membrane homogenates (2.5 μg protein) expressing the recombinant human bradykinin B2 receptor were incubated for 60 min at 23° C. with 0.2 nM [^3H]-bradykinin (95.5 Ci/mmole, PerkinElmer) in the absence or presence of the test compound in a buffer containing 50 mM Tris/HCl (pH 7.4), 0.2 g/L 1-10-phenanthroline and 0.1% BSA. All reagent and test compound additions to the assay plates were made using Biomek 3000 robotic workstations (Beckman Instruments, Fullerton, Calif.). Nonspecific binding was determined in the presence of 1 μM unlabeled bradykinin. Following the incubation, the assay was terminated by rapid filtration under vacuum through glass fiber filters (GF/C, PerkinElmer) presoaked with 0.3% polyethyleneimine and rinsed several times with an ice-cold 50 mM Tris-HCl buffer using a 96-sample cell harvester (Tomtec). The filters were air-dried and the radioactivity counted in a beta-scintillation counter (Topcount, PerkinElmer) using a scintillation cocktail (Microscint 20, PerkinElmer) (Sharif and Whiting, Neurochem. Int. 18: 89-96, 1991). Competitive binding inhibition curves were generated using a 7-point concentration—response of test compound in duplicate. Bradykinin peptide was also tested as an internal control in the assay. The data were analyzed using nonlinear, iterative curve-fitting to obtain the potency and intrinsic activities of the test agents as previously described (Sharif et al. J. Pharmacol. Exp. Ther. 286: 1094-1102, 1998; Sharif et al. Invest Ophthalmol. Vis. Sci. 39:2562-2571, 1998; Kelly et al. J. Pharmacol. Exp. Ther. 304: 238-245, 2003). Determined IC50 values were converted to Ki values using the standard Cheng-Prusoff equation.

[3] = molecular target: T2, BK receptors in human ciliary muscle cells (h-CM) (Homo sapiens, UniProt P30411); test: Functional assay measuring [Ca2+]i mobilization (FLIPR) in h-CM cells; format: cell-based; details: class symbols (in μM), read-out: CaM (EC50)
T2 construct: h-CM cells expressing BK receptors were seeded; endogenous in cells; host or cells: human ciliary muscle (h-CM) cells
T2 sequence (P30411 1-391): T1 sequence (P30411 1-391)
Experimental: On the day of the experiment, media was removed, cells were rinsed and 50 μL of serum-free media added. One vial of FLIPR Calcium Assay Kit dye was reconstituted in 50 mL of a FLIPR buffer consisting of Hank's Balanced Salt Solution (HBSS), 20 mM HEPES, and 2.5 mM probenecid, pH 7.4. Cells were loaded with the calcium-sensitive dye by addition of an equal volume (50 μL) to each well of the 96-well plate and incubated with dye for 1 h at 23° C. […] After this time, the test compound plate and cell plate were placed in a Fluorescence Imaging Plate Reader (FLIPR-Tetra®) instrument (Molecular Devices/MDSPharma, Sunnyvale, Calif.). At the beginning of an experimental run, a signal test was performed to check the basal fluorescence signal from the dye-loaded cells and the uniformity of the signal across the plate. […] An aliquot (25 μL) of the test compound was added to the existing 100 μL dye-loaded cells at a dispensing speed of 50 μL/sec. Intracellular calcium mobilization was measured by monitoring real-time changes in cellular fluorescence upon test compound addition. Fluorescence data were collected in real-time at 1.0 sec intervals for the first 60 seconds and at 6.0 second intervals for an additional 120 seconds. Baseline fluorescence readings were normalized across the plate and background-corrected from negative control wells. […] EC50 values were determined by 4-parameter nonlinear curve fitting of the concentration-response curve. Calibration of the instrument was performed using manufacturer's standard procedures.

| SMILES | EC50 ([1]; Homo sapiens, 1 h) [µM] | Ki [2] [nM] | EC50 [3] [µM] | EC50 [1] [µM] |
| --- | --- | --- | --- | --- |
| COCCNC(=O)c1ccc(CCC(=O)NCC(=O)N(C)c2ccc(Cl)c(COc3cccc4c3nc(OC)n4Cc3ccccn3)c2Cl)cc1 [Compound 1, 4-(3-((2-((2,4-dichloro-3-(((2-methoxy-1-(pyridin-2-ylmethyl)-1H-benzo[d]imidazol-4-yl)oxy)methyl)phenyl)(methyl)amino)-2-oxoethyl)amino)-3-oxopropyl)-N-(2-methoxyethyl)benzamide] | < 0.1 | 54 | < 0.1 |  |
| COC(=O)Nc1ccc(CCC(=O)NCC(=O)N(C)c2ccc(Cl)c(COc3cccc4c3nc(OC)n4Cc3ccccn3)c2Cl)cn1 [Compound 2, methyl (5-(3-((2-((2,4-dichloro-3-(((2-methoxy-1-(pyridin-2-ylmethyl)-1H-benzo[d]imidazol-4-yl)oxy)methyl)phenyl)(methyl)amino)-2-oxoethyl)amino)-3-oxopropyl)pyridin-2-yl)carbamate] | < 0.1 | 101 | < 0.1 |  |
| COc1nc2c(OCc3c(C)ccc(N(C)C(=O)CNC(=O)CCc4cnc5[nH]c(=O)oc5c4)c3C)cccc2n1Cc1ccccn1 [Compound 3, N-(2-((3-(((2-methoxy-1-(pyridin-2-ylmethyl)-1H-benzo[d]imidazol-4-yl)oxy)methyl)-2,4-dimethylphenyl)(methyl)amino)-2-oxoethyl)-3-(2-oxo-2,3-dihydrooxazolo[4,5-b]pyridin-6-yl)propanamide] | > 1 | 273 | < 0.1 |  |
| COC(=O)Nc1ccc(CCC(=O)NCC(=O)N(C)c2ccc(C)c(COc3cccc4c3nc(OC)n4Cc3ccccn3)c2C)cn1 [Compound 4, methyl (5-(3-((2-((3-(((2-methoxy-1-(pyridin-2-ylmethyl)-1H-benzo[d]imidazol-4-yl)oxy)methyl)-2,4-dimethylphenyl)(methyl)amino)-2-oxoethyl)amino)-3-oxopropyl)pyridin-2-yl)carbamate] | > 1 | 158 | 0.1 to 1 |  |
| CNC(=O)N1CCN(CCC(=O)NCC(=O)N(C)c2ccc(Cl)c(COc3cccc4c3nc(OC)n4Cc3ccccn3)c2Cl)CC1 [Compound 7, 4-(3-((2-((2,4-dichloro-3-(((2-methoxy-1-(pyridin-2-ylmethyl)-1H-benzo[d]imidazol-4-yl)oxy)methyl)phenyl)(methyl)amino)-2-oxoethyl)amino)-3-oxopropyl)-N-methylpiperazine-1-carboxamide] | < 0.1 | 118 ± 2 | < 0.1 |  |
| CNC(=O)C1CCN(CC(=O)NCC(=O)N(C)c2ccc(Cl)c(COc3cccc4c3nc(OC)n4Cc3ccccn3)c2Cl)CC1 [Compound 13, 1-(2-((2-((2,4-dichloro-3-(((2-methoxy-1-(pyridin-2-ylmethyl)-1H-benzo[d]imidazol-4-yl)oxy)methyl)phenyl)(methyl)amino)-2-oxoethyl)amino)-2-oxoethyl)-N-methylpiperidine-4-carboxamide] | > 1 |  | 0.1 to 1 |  |
| CNC(=O)c1ccc(CCC(=O)NCC(=O)N(C)c2ccc(Cl)c(COc3cccc4c3nc(OC)n4Cc3ccccn3)c2Cl)nc1 [Compound 43, 6-(3-((2-((2,4-dichloro-3-(((2-methoxy-1-(pyridin-2-ylmethyl)-1H-benzo[d]imidazol-4-yl)oxy)methyl)phenyl)(methyl)amino)-2-oxoethyl)amino)-3-oxopropyl)-N-methylnicotinamide] | < 0.1 |  | < 0.1 |  |
| CCOC(=O)COc1cc(C)nc2c(OCc3c(Cl)ccc(N(C)C(=O)CNC(=O)CCc4ccc(C(=O)NC)nc4)c3Cl)cccc12 [Compound 46, ethyl 2-((8-((2,6-dichloro-3-(N-methyl-2-(3-(6-(methylcarbamoyl)pyridin-3-yl)propanamido)acetamido)benzyl)oxy)-2-methylquinolin-4-yl)oxy)acetate] | < 0.1 |  | 0.1 to 1 |  |
| CNC(=O)c1ccc(CCC(=O)NCC(=O)N(C)c2ccc(Cl)c(COc3cccc4c(OCc5ccccc5F)cc(C)nc34)c2Cl)cn1 [Compound 47, 5-(3-((2-((2,4-dichloro-3-(((4-((2-fluorobenzyl)oxy)-2-methylquinolin-8-yl)oxy)methyl)phenyl)(methyl)amino)-2-oxoethyl)amino)-3-oxopropyl)-N-methylpicolinamide] | < 0.1 |  | 0.1 to 1 |  |
| CNC(=O)c1ccc(CCC(=O)NCC(=O)N(C)c2ccc(Cl)c(COc3cccc4c(OCc5cn(C)cn5)cc(C)nc34)c2Cl)cn1 [Compound 48, 5-(3-((2-((2,4-dichloro-3-(((2-methyl-4-((1-methyl-1H-imidazol-4-yl)methoxy)quinolin-8-yl)oxy)methyl)phenyl)(methyl)amino)-2-oxoethyl)amino)-3-oxopropyl)-N-methylpicolinamide] | 0.1 to 1 |  | < 0.1 |  |
| COc1nc2c(OCc3c(Cl)ccc(N(C)C(=O)CNC(=O)CN4CCC(NC(C)=O)C4)c3Cl)cccc2n1Cc1ccccn1 (stereo not drawn) [Compound 66] | 0.1 to 1 |  | < 0.1 |  |
| COc1nc2c(OCc3c(Cl)ccc(N(C)C(=O)CNC(=O)CCc4ccc(N)nc4)c3Cl)cccc2n1Cc1ccccn1 [Compound 67] | > 1 |  | < 0.1 |  |
| COc1nc2c(OCc3c(Cl)ccc(N(C)C(=O)CNC(=O)CCCN4CCNC(=O)C4)c3Cl)cccc2n1Cc1ccccn1 [Compound 72] | > 1 |  | < 0.1 |  |
| CNC(=O)c1ccc(CCC(=O)NCC(=O)N(C)c2ccc(Cl)c(COc3cccc4c3nc(OC)n4Cc3cn(C)cn3)c2Cl)cc1 [Compound 78, 4-(3-((2-((2,4-dichloro-3-(((2-methoxy-1-((1-methyl-1H-imidazol-4-yl)methyl)-1H-benzo[d]imidazol-4-yl)oxy)methyl)phenyl)(methyl)amino)-2-oxoethyl)amino)-3-oxopropyl)-N-methylbenzamide] | < 0.1 |  | < 0.1 |  |
| COc1nc2c(OCc3c(Cl)ccc(N(C)C(=O)CNC(=O)CCc4ccc(C(=O)NCCO)nc4)c3Cl)cccc2n1Cc1cn(C)cn1 [Compound 85] | < 0.1 |  | < 0.1 |  |
| CNC(=O)c1ccc(CCC(=O)NCC(=O)N(C)c2ccc(Cl)c(COc3cccc4c3nc(OC)n4Cc3cn(C)cn3)c2Cl)cn1 [Compound 86] | < 0.1 |  | < 0.1 |  |
| CNC(=O)c1ccc(CCC(=O)NCC(=O)N(C)c2ccc(Cl)c(COc3cccc4c(OCc5cn(C)cn5)cc(C)nc34)c2Cl)cn1 [Compound 87] |  |  | 0.1 to 1 | < 0.1 |
